Assay results as given in patent US20200254110A1, “LIGAND-CONJUGATES AND METHODS FOR TARGETED RECEPTOR-MEDIATED CELLULAR UPTAKE” (priority 2017, published 2020).
Ends that are not written are not given here.

Assays:
[1] = biological target: T1, PAR2-expressing HEK293 (human embryonic kidney) cells (Homo sapiens, UniProt P55085); assay: Intracellular Ca2+ mobilization assay (Indo-1 AM, flow cytometry); format: cell-based; conditions: for shift in relative fluorescence intensity (RFI) of the cells relative to the untreated sample (PAR2 activation, intracellular calcium mobilization): HEK293 cells preincubated with Indo-1 AM, P6 100-200 μM, P8 200-400 μM, flow cytometry; for relative potential of PAR2 activation (rank order): HEK293 cells, calcium mobilization, FIG. 4 A-C
T1 construct: PAR2-expressing HEK293 (human embryonic kidney) cells; endogenous in cells; host or cells: HEK293
T1 sequence (P55085 26-397): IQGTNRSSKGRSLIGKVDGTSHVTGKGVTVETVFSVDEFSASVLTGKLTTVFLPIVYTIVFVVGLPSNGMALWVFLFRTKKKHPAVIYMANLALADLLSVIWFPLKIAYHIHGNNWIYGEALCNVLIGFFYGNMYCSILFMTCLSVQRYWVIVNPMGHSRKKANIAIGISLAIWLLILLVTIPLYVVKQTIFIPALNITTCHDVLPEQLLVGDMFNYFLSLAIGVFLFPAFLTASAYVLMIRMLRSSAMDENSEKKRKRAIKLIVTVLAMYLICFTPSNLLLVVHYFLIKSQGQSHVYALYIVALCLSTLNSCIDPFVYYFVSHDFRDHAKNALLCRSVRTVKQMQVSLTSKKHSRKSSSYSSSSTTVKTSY
Text: To test whether the modified PAR ligands such as the synthesis intermediates as well as the final compound P8 are capable of binding and activating PAR in vitro a calcium-based cell activation assay was established on the basis of the assay for measurement of intracellular Ca^2+ mobilization described in Kelm et al., J. Exp. Med. 195 (2002), 1207-1213, which can be used directly on PAR, i.e. PAR2 expressing cells.
SOP: Measurement of Intracellular Ca^2+ Mobilization • Thaw 1 aliquot of frozen (from liquid N2) HEK293 cells (careful at RT) • Provide 10 mL of DMEM (Dulbecco's Modified Eagle Medium, phenol red free!) containing 10% FCS, antibiotics (50 μg/mL gentamicin final conc.) on a 10 cm cell culture plate • Add cells to the plate and grow them at 37° C., 8% CO2 until 60-70% confluency (one cell layer on the plate) • Wash the cells 3× with 10 mM PBS (phosphate buffer saline), pH 7.4 • Add 10 mL of fresh DMEM (phenol red free!) and carefully resuspend the cells • Count the cells employing a flow cytometer and dilute to 3×10^5 cells/mL in DMEM (phenol red free!) • Pipette 1 ml of the diluted cell suspension in each well of a 24-well cell culture plate • Add 30 μL of Pluronic® F-127 (0.01% (v/v) final conc., P2443 Sigma-Aldrich) and 15 μL of Indo 1-AM ester in DMSO (15 μM final conc., I3261 Sigma-Aldrich) to the cell suspension • Incubate for 45 min at 37° C., 8% CO2, in the dark • Henceforward keep the cells in the dark • Remove cells from the culture plate and subsequently wash 1× with 15 mL of HEPES buffer (100 mM HEPES, pH 7.4) to remove excess Indo 1-AM ester and resuspend cells in 1 mL HEPES buffer (100 mM HEPES, pH 7.4) • Add 10 μL propidium iodide (PI: final conc. 100 ng/mL, P4864 Sigma-Aldrich) to the cell suspension and immediately perform flow cytometry analysis • Perform flow cytometry analysis using the appropriate laser/filter sets (CyFlow® Cube 8 Sysmex):
Indo 1-AM: λexcitation,max 345 nm, λemission,max 400 nm (Ca^2+ bound), λemission,max 475 nm (Ca^2+ free), (excitation: UV-LED, emission: FL4 channel, 455/50 nm)
PI: λexcitation,max 535 nm (DNA-bound), λemission,max 617 nm (DNA-bound), (excitation: 488 nm laser, emission: FL2 channel, 590/50 nm) • For PAR-2 activation, add the appropriate amount of activator (SLIGRL: 50 μM final conc., trypsin: 40 Units (TRYPSEQM-RO Roche), P6 or P8: 100-200 μM or 200-400 μM respectively) to the cell suspension (containing 15 nmol Indo 1-AM ester) and immediately perform flow cytometry analysis • Determine the decrease in relative fluorescence intensity (due to the shift from unbound towards calcium bound Indo 1-AM complexes) after PAR mediated activation of HEK293 cells
As described above, activation of PARs leads to the initiation of a variety of signal transduction pathways and downstream signaling. One consequence of PAR activation presents the intracellular calcium mobilization from storage reservoirs of the endoplasmic reticulum (ER) and mitochondria into the cytosol. […] In the present assay the Indo-1 AM fluorophore was used, which is an esterified derivative of Indo-1 and thus able to penetrate the cell membrane. Upon uptake into the cytoplasm, present esterases will transfer the ester into the carboxylate, which is then trapped in the cell due to its obtained negative charges. A shift in Indo-1 AM emission from 480 nm (calcium free Indo-1 AM) to 400 nm (calcium bound Indo-1 AM) can be detected employing a flow cytometer, when bound to free calcium. […]

[2] = tested on: PAR2 expressing keratinocytes (HaCaT); assay: PAR2 mediated endocytosis assay (fluorescence microscopy); format: cell-based, human; conditions: keratinocytes serum-starved 24 h, 2 h incubation, FIG. 5
Experimental: SOP: PAR2 Mediated Endocytosis Assay • Culture HaCaT (cultured human keratinocytes) cells in DMEM (Dulbecco's Modified Eagle Medium, phenol red free!) supplemented with 10% (w/v) FCS and antibiotics (gentamicin: 50 μg/mL final conc.) in a 10 cm cell culture plate at a confluency (one cell layer on the plate) of 60-70% • Count the cells and dilute to 1-2×10^4 cells/mL in DMEM (phenol red free!) • Incubate 1 mL of the diluted cell suspension in each well of a 24-well cell culture plate supplemented with 10% (w/v) FCS (containing gentamicin at a final conc. of 50 μg/mL) on a glass coverslip for 24 h at 37° C., 5% CO2 • Discard the supernatant and carefully wash the cells 3 times with 500 μL DMEM (phenol red free, without FCS!) • Incubate the cells for 24 h at 37° C., 5% CO2 (DMEM without serum addition, phenol red free only!) • Add CaCl2 solution to reach a final concentration of 1.5 mM in the medium when using Ca^2+-free medium (induction of cell differentiation) • For PAR2 activation […]
An endocytosis assay was used to test whether the PAR ligand-conjugate, i.e. PAR2 agonist P8 enhances the uptake of IONPs into PAR, here PAR2 expressing keratinocytes, when immobilized to the surface of the IONP. […] After the incubation, cells were washed thoroughly for several times and internalization of the modified IONPs was analyzed employing fluorescent microscopy (FIG. 5, lower right corner). […]

[3] = biological target: T2, PAR2 (Homo sapiens, UniProt P55085); conditions: PAR2 agonist peptide, reference [1]; cited from earlier work
T2 sequence (P55085 26-397): T1 sequence (P55085 26-397)

Row | Substance | shift in relative fluorescence intensity (RFI) of the cells relative to the untreated sample (PAR2 activation, intracellular calcium mobilization) [1] | relative potential of PAR2 activation (rank order) [1] | uptake (internalization) into cultured keratinocytes [2] | effectiveness relative to SLIGRL-NH2 [3]
1 | Fam5/6-Lysine-DEG-SLIGRL [P8] | induced a shift in relative fluorescence intensity | decreased from SLIGRL-NH2, to P6 and further to P8 |  | 
2 | P8 modified IONPs (SLIGRL; not fully specified (C-terminus); also: P8 modified IONPs (on iron oxide nanoparticles)) |  |  | successful uptake | 
3 | 2-furoyl(1)L(2)IG(4)RL(6)-NH2 |  |  |  | 10-20 fold
4 | SerLeuIleGlyArgLeu-NH2 (SLIGRL-NH2) [PAR2 agonist hexapeptide, native tethered ligand of rodent PAR2, reference compound] |  | decreased from SLIGRL-NH2, to P6 and further to P8 |  | 
5 | NH2-DEG-SLIGRL [P6] | induced a shift in relative fluorescence intensity | decreased from SLIGRL-NH2, to P6 and further to P8 |  | 
